Data taken from ChEMBL document CHEMBL1201862, “PubChem BioAssay data set” (2004).
Activity calls are given as the source filed them.

How the values were obtained:
Protein RecA = molecular target: T1, Protein RecA (Mycobacterium tuberculosis, UniProt P9WHJ3); assay: Fluorescence Cell-Free Homogeneous Dose Retest to Identify Inhibitors of RecA-Intein Splicing Activity. [Related pubchem assays (depositor defined):AID2097, AID2223, AID489010, AID492950]; assay type: functional
T1 sequence (P9WHJ3 whole entry): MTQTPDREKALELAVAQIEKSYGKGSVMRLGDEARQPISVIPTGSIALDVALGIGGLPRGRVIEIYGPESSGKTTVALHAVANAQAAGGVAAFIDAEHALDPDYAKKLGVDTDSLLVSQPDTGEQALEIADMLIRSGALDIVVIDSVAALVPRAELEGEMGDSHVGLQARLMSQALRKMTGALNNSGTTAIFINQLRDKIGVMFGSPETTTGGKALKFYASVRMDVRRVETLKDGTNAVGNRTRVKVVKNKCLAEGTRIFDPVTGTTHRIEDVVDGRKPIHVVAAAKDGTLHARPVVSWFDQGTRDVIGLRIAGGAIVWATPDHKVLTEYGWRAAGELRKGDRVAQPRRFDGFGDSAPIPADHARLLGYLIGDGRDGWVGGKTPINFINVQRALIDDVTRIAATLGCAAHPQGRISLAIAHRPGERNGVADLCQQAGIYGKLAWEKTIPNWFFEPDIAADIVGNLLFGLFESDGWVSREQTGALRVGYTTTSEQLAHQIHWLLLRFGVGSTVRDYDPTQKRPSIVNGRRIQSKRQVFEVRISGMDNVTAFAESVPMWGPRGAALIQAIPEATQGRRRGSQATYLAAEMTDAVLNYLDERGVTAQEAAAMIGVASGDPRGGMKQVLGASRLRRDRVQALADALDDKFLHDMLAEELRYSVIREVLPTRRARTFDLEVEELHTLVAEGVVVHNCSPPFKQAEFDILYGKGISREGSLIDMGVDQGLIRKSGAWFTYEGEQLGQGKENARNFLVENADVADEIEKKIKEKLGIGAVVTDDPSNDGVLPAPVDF

[1] = NIH3T3 cell viability loss – ATP luminescence, mouse fibroblasts, counter-screen, dose response (AID 2010); assay type: functional, cell-based;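 note: cells exposed to compound for about 90 hours before reading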
[2] = Trypanosoma cruzi growth suppression in host cells – NIH3T3 host cells, beta-gal luminescence, confirmation (AID 2044); assay type: functional, cell-based;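 note: intracellular parasites grown in NIH/3T3 mouse fibroblasts as host cells; luminescent beta-galactosidase reporter signal from transgenic T. cruzi replicating inside host cells; inhibitors lower the luminescence signal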
[3] = molecular target: T2, Replicative DNA helicase DnaB (Mycobacterium tuberculosis, UniProt P9WMR3); assay: DnaB intein splicing inhibitors, dose response, biochemical, cell-free fluorescence (AID 449749); assay type: functional
T2 sequence (P9WMR3 whole entry): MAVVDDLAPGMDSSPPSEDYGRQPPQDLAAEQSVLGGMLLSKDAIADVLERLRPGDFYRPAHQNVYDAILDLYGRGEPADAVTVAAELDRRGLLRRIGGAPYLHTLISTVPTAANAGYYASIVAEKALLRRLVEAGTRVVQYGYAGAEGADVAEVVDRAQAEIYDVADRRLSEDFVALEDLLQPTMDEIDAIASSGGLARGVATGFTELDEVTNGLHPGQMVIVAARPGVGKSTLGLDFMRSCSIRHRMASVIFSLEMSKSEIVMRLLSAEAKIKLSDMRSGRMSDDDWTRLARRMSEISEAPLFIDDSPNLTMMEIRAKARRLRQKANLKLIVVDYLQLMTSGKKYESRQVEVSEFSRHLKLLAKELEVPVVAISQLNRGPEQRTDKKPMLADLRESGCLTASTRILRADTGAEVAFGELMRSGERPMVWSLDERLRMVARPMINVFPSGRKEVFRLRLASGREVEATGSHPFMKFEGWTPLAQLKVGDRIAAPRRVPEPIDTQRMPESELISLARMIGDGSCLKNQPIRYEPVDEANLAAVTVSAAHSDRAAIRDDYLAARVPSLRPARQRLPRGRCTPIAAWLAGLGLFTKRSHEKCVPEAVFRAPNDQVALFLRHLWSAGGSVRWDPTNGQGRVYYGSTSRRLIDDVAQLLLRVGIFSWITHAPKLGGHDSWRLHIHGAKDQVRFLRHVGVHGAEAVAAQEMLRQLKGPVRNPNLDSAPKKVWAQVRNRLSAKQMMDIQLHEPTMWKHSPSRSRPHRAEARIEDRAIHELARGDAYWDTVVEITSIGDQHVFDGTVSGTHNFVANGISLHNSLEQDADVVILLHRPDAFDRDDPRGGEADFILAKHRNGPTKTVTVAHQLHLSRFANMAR

[4] = Luminescence Cell-Based Dose Retest to Confirm Inhibitors of Cancer Stem Cells. [Related pubchem assays (depositor defined):AID2717, AID2721]; assay type: functional; details: Homo sapiens
[5] = fluconazole-exposed Candida albicans growth modulators – fluorescence, retest, confirmation (AID 2467); assay type: functional, cell-based
[6] = NIH-3T3 fibroblast cytotoxicity, dose response, cytotoxicity control, cell-based, fluorescence, Alamar Blue, secondary assay (AID 2327); assay type: functional;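 note: NIH-3T3 mouse fibroblasts cultured with fluconazole at 8 µg/mL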
Streptococcus = assay: GAS UMAA2166 growth inhibition – luminescence, BacTiterGlo, counter-screen for streptokinase expression inhibitor project, dose response (AID 1915); assay type: functional, organism-based;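 note: potency for reduction of bacterial viability or growth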
Streptokinase A = molecular target: T3, Streptokinase A (Streptococcus pyogenes serotype M1, UniProt P10520); assay: viability-normalized secreted streptokinase activity reduction – plasminogen activation absorbance, OD405, dose response (AID 1914); assay type: functional, Streptococcus pyogenes M1 GAS;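 note: secreted streptokinase activity via plasminogen activation per viability signal from cell pellet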
T3 sequence (P10520 whole entry): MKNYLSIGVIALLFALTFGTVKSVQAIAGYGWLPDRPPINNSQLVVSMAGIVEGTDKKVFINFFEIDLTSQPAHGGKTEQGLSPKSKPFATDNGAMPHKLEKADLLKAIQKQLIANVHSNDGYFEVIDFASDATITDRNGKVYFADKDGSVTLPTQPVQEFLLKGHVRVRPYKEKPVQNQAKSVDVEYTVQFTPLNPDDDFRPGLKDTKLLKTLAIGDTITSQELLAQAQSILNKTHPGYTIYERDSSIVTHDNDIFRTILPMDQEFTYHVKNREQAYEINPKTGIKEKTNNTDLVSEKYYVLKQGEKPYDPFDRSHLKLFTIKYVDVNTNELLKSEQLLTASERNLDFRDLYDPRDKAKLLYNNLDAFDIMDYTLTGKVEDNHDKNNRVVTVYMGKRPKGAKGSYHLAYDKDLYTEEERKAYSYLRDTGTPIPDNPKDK

[7] = system: Streptococcus sp. 'group A'; assay: Streptococcus pyogenes SK(-)GAS viability under kanamycin – luminescence, BacTiterGlo, confirmation, counter-screen for streptokinase expression inhibitor project, dose response (AID 1900); assay type: functional, organism-based
Cytochrome P450 2D6 = Cytochrome P450 2D6 (Homo sapiens, UniProt P10635);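 note: CYP2D6 member of a cytochrome P450 panel assay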
Sequence of Cytochrome P450 2D6 (P10635 whole entry): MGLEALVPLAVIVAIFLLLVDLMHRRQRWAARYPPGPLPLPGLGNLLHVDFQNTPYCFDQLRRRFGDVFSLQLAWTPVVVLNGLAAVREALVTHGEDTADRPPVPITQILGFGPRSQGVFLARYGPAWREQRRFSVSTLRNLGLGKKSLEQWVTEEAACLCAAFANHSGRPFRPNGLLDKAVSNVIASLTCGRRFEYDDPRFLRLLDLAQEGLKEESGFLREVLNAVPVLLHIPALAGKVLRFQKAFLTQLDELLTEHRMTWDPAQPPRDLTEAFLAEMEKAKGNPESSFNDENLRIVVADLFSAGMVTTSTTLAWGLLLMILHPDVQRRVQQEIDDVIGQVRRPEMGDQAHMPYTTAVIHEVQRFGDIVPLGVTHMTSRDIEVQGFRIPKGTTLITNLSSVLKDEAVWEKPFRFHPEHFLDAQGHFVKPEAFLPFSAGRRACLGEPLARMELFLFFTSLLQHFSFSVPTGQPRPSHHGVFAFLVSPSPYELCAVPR

INS1 = assay: INS-1E survival protection against cytokine death – cell-based, luminescence, retest, dose response (AID 449756); assay type: functional; details: Rattus norvegicus;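 note: cell death triggered by IL-1 beta plus TNF-alpha plus IFN-gamma mixture; protective hits raise ATP signal compared with cytokine alone wells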
[8] = microbe, parasite or virus in culture; assay type: functional; details: Mycobacterium tuberculosis
Protein skinhead-1 = molecular target: T4, Protein skinhead-1 (Caenorhabditis elegans, UniProt P34707); assay type: functional
T4 sequence (P34707 whole entry): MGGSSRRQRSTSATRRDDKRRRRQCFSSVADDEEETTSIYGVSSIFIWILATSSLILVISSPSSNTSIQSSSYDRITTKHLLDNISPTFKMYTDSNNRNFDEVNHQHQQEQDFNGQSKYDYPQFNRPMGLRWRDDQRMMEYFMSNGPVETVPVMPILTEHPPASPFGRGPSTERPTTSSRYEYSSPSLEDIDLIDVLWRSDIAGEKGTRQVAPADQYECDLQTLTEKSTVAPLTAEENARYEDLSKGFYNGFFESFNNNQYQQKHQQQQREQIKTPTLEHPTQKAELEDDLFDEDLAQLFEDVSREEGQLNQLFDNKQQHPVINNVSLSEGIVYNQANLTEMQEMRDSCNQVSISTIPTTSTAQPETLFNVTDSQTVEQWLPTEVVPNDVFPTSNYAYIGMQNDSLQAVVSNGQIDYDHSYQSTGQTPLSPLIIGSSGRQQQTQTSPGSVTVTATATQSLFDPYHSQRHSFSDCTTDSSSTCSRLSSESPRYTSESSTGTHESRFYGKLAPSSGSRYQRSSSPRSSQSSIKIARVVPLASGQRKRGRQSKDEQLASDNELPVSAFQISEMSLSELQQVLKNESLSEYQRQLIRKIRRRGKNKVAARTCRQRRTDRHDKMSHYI

cells = assay type: functional

Compound: Cn1c(-c2ccccc2)c(C(=O)CCl)c2ccccc21
- EC50 (Protein RecA): 3.04 µM (active)
- EC50 [1]: 2.44 µM (active)
- EC50 [2]: 0.998 µM (active)
- AC50 [3]: 6.94 µM (active)

Compound: CCOc1cc(/C=C2/SC(=S)N(Cc3ccccc3)C2=O)ccc1O
- EC50 (Protein RecA): 3.96 µM (active)
- AC50 [4]: 1.42 µM (active)
- AC50 [3]: 38.9 µM (active)

Compound: Cc1cccc(N2CCN(c3nc(C)cc(C)c3C#N)CC2C)c1 (stereo not given)
- EC50 [1]: > 60 µM (not active)
- EC50 [2]: 3.63 µM (active)
- EC50 [5]: > 38 µM (not active)
- EC50 [6]: 41.3 µM (active)

Compound: O=C(NC(=S)N(Cc1ccccc1)Cc1ccccc1)c1ccccc1F
- EC50 (Streptococcus): 9.16 µM (active)
- EC50 (Streptokinase A): > 150 µM (not active)
- EC50 [7]: 1.08 µM (active)
- AC50 (Cytochrome P450 2D6): 0.2 µM (inconclusive)

Compound: O=C(NCc1ccccc1)C1=C[C@@H](c2csc3ccccc23)C[C@@H](OCc2ccc(CO)cc2)O1
- AC50 (INS1): 2.88 µM (active)

Compound: COC(=O)c1cc(NC(=O)c2cc(-c3ccccc3Cl)oc2C(F)(F)F)ccc1N1CCOCC1
- AC50 [4]: 4.57 µM (active)

Compound: C[C@@H]1O[C@@H](O[C@H]2C[C@@H](O)[C@]3(CO)[C@H]4[C@H](O)C[C@]5(C)[C@@H](C6=CC(=O)OC6)CC[C@]5(O)[C@@H]4CC[C@]3(O)C2)[C@H](O)[C@H](O)[C@H]1O
- AC50 [4]: < 0.16 µM (active)

Compound: CC1CCN(C(=S)NC(=O)c2cccs2)CC1
- CC50 [8]: > 40 µM (active)

Compound: Fc1ccc(Cn2cccc2C2=NC(c3ccccc3)CO2)cc1 (stereo not given)
- EC50 (Streptococcus): > 150 µM (not active)
- EC50 (Streptokinase A): 23.8 µM (active)
- EC50 [7]: 16 µM (active)

Compound: CN(CC(=O)Nc1cccc(F)c1)C(=O)CC1CC2CCC1C2 (stereo not given)
- IC50 (Protein skinhead-1): > 100 µM (inactive)

Compound: NCCCn1c(C(=O)c2ccc(Cl)cc2)c2ccc([N+](=O)[O-])cc2[n+]1[O-]
- CC50 [8]: 35.4 µM (active)

Compound: COC(=O)COc1ccc(-c2ccccc2)cc1C=O
- IC50 (cells): 12.1 µM (active)

Compound: CCn1c(C)c(C)c2cc(C(=O)N3CCN(c4ccccc4)CC3)ccc21
- IC50 (Protein skinhead-1): > 100 µM (inactive)

Compound: COc1ccc(-c2cccc([C@H]3[C@@H]4C=CCC[C@@]4(C)C(=O)N3Cc3ccccc3)c2)cc1
- AC50 [4]: 5.36 µM (active)

Compound: COC(=O)c1c2c(nc3ccccc13)CCC2
- IC50 (Protein skinhead-1): > 100 µM (inactive)

Compound: Cc1cc(C(=O)c2ccc(Cl)cc2)c(NC(=O)CCl)s1
- EC50 (Protein RecA): 0.481 µM (active)
- AC50 [3]: 24.4 µM (active)

Compound: Cc1cccc(C)c1OCC(=O)Nc1cccc(-c2nnc(-c3ccccc3)o2)c1
- CC50 [8]: 34.9 µM (active)

Compound: CC(=O)Nc1ccc(SCC(=O)c2cc(C)n(-c3ccccc3)c2C)cc1
- AC50 [4]: 6.41 µM (active)

Compound: COc1ccc(NC(=O)c2cc3ccccc3o2)cc1
- IC50 (cells): > 50 µM (active)

Compound: CC(=O)c1c(C)[nH]c(C(=O)CN2CCN(S(=O)(=O)c3ccccc3)CC2)c1C
- AC50 (INS1): > 260 µM (inactive)

Compound: CCCOc1ccc(OCCSc2ncccn2)cc1
- IC50 (Protein skinhead-1): 82.8 µM (inactive)

Compound: Cc1ccc(OCCSc2nc(NC(C)C)nc(NC(C)C)n2)cc1
- EC50 (Streptococcus): 34.2 µM (active)
- EC50 (Streptokinase A): 13.9 µM (active)
- EC50 [7]: 6.42 µM (active)
- AC50 [4]: 1.11 µM (active)

Compound: O=C(/C=C/c1ccccc1)Nn1c(-c2cccs2)nc2ccccc2c1=O
- EC50 [5]: 0.102 µM (active)
- EC50 [6]: > 160 µM (inactive)

Compound: CC1=NN(c2ccccc2)C(=O)/C1=C\c1cn(C)c2ccccc12
- EC50 (Protein RecA): 6.5 µM (active)
- AC50 [3]: 17.7 µM (active)

Compound: O=C(CCCCCNc1nc(S)nc2ccccc12)N1CCN(c2ccccn2)CC1
- CC50 [8]: > 40 µM (active)

Compound: COc1ccc(C(=O)c2ccc(OC)cc2OC)cc1
- AC50 [4]: 13.6 µM (active)

Compound: C=CCn1c(NC(=O)c2ccc(Br)o2)c(C(=O)OCC)sc1=S
- EC50 [5]: > 38 µM (not active)
- EC50 [6]: > 160 µM (inconclusive)

Compound: c1nc2n(n1)C1=C(CCCC1)C1(CCCCC1)N2
- IC50 (cells): 10.1 µM (active)

Compound: C=CC[C@@H](CC(=O)N(CCO)Cc1ccccc1)C(=O)N[C@H](COC(=O)[C@@H](CC=C)CC(=O)OC(C)(C)C)c1ccccc1
- AC50 (INS1): > 260 µM (inactive)

Compound: O=C(C=Cc1ccco1)c1ccc2ccccc2c1
- IC50 (Protein skinhead-1): 9.38 µM (active)

Compound: O=C(OCn1nnc2ccccc2c1=O)c1ccc(Br)o1
- IC50 (cells): 18.6 µM (active)

Compound: CC(C)c1ccc(NC(=O)C(c2ccccc2)N(C)C(=O)CCc2c[nH]c3ccccc23)cc1 (stereo not given)
- AC50 [4]: 4 µM (active)

Compound: Cc1ccc(-c2nnn(CC(=O)NCC3COCCO3)n2)o1 (stereo not given)
- IC50 (Protein skinhead-1): > 100 µM (inactive)

Compound: O=[N+]([O-])c1ccc(Nc2nccc(Cl)n2)cc1
- IC50 (Protein skinhead-1): > 100 µM (inactive)

Compound: Cc1ccn2c(NC3CCCCC3)c(-c3cccc(SC4CCCCC4)c3)nc2c1
- AC50 [4]: 2.65 µM (active)
